This is an account of results in article PMC8607797 (Nature chemical biology, 2021).

Common to all, as to assay type: cell-based
One assay concerns the target T1, Cav1 (Mus musculus, UniProt P49817).
T1 sequence (P49817 2-178): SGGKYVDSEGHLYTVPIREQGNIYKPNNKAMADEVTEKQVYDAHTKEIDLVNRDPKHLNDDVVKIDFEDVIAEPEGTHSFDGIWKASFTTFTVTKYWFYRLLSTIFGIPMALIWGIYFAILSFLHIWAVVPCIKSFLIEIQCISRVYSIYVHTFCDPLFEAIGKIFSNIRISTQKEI
In words: live-cell chemoproteomic competition of probe […].

Another assay has as its target T2, Ephx1 (Mus musculus, UniProt Q9D379).
T2 sequence (Q9D379 1-455): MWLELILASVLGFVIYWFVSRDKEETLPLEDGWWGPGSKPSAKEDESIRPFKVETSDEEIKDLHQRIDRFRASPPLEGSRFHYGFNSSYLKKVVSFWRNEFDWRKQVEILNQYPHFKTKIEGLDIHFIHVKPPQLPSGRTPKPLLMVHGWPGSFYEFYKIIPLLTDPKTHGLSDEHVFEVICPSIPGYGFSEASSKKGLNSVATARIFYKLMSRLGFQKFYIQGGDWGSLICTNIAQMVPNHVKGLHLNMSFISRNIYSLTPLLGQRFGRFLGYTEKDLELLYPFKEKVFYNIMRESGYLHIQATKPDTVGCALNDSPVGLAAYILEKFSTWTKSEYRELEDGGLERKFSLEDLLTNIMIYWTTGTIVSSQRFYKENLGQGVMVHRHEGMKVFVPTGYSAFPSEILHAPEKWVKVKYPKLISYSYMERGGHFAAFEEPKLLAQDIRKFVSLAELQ
Put plainly: live-cell chemoproteomic competition of probe […].

The target of the next assay is T3, Tmem97 (σ2 receptor) (Mus musculus, UniProt Q8VD00).
T3 sequence (Q8VD00 1-176): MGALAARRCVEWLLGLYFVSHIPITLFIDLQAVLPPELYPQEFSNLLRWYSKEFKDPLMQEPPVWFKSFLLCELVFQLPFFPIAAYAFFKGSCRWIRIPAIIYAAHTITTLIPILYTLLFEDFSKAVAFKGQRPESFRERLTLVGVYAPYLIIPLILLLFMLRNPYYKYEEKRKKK
Put plainly: live-cell competition of probe […] labeling, in-gel fluorescence.

Regarding `CC(C)CCC[C@](C)(O)[C@H]1CC[C@H]2[C@@H]3CC=C4C[C@@H](O)CC[C@]4(C)[C@H]3CC[C@@]21C` [compound 1, 20(S)-hydroxycholesterol], the “live-cell chemoproteomic competition of probe 2 (TMT MS)” value on Cav1 is “The most competable proteins encompassed the highly enriched targets Tmem97, Ephx1, and Cav1”; on Ephx1, “The most competable proteins encompassed the highly enriched targets Tmem97, Ephx1, and Cav1”.

For the molecule `CC(C)CCC[C@@](C)(O)[C@H]1CC[C@H]2[C@@H]3CC=C4C[C@@H](O)CC[C@]4(C)[C@H]3CC[C@@]21C` [compound 13, 20(R)-hydroxycholesterol], the “live-cell competition of probe 2 labeling, in-gel fluorescence” value at Tmem97 (σ2 receptor) amounted to 50% competition at 50.
